According to PubChem BioAssay AID1963966 (Molecular Pharmacology Branch, DTP, NCI, 2024):

Tested on: 935938-334-R-J1-PDC spheroids with HUVEC/MSC, viability
Experiment: Anticancer human tumor 935938-334-R-J1-PDC patient-derived small intestine adenocarcinoma cell line growth inhibition [PI3K]
Conditions: for IC50: curve of first compound; for viability, T/C: stronger effect = lower value; active means viability on the fitted dose curve at most 10% of control; inactive means the rest
How it was run: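 Agents were dosed from a top concentration near clinical Cmax (otherwise 10 microM) in half-log decrements, alone or combined with PI3K inhibitors. The spheroids contain tumor cells plus endothelial (HUVEC) and MSC stroma; viability is measured.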

[1] = second compound 0.00316 µM, first compound 0.0316 µM
[2] = second compound 0.00316 µM, first compound 0.1 µM
[3] = second compound 0.01 µM, first compound 0.0316 µM
[4] = second compound 0.01 µM, first compound 0.1 µM
[5] = second compound 0.0316 µM, first compound 0.0316 µM
[6] = second compound 0.0316 µM, first compound 0.1 µM
[7] = second compound 0.0316 µM, first compound 0.316 µM
[8] = second compound 0.0316 µM, first compound 1 µM
[9] = second compound 0.0316 µM, first compound 3.16 µM
[10] = second compound 0.0316 µM, first compound 10 µM
[11] = second compound 0.1 µM, first compound 0.0316 µM
[12] = second compound 0.1 µM, first compound 0.1 µM
[13] = second compound 0.1 µM, first compound 0.316 µM
[14] = second compound 0.1 µM, first compound 1 µM
[15] = second compound 0.1 µM, first compound 3.16 µM
[16] = second compound 0.1 µM, first compound 10 µM
[17] = second compound 0.316 µM, first compound 0.0316 µM
[18] = second compound 0.316 µM, first compound 0.1 µM
[19] = second compound 0.316 µM, first compound 0.316 µM
[20] = second compound 0.316 µM, first compound 1 µM
[21] = second compound 0.316 µM, first compound 3.16 µM
[22] = second compound 0.316 µM, first compound 10 µM
[23] = second compound 1 µM, first compound 0.0316 µM
[24] = second compound 1 µM, first compound 0.1 µM
[25] = second compound 1 µM, first compound 0.316 µM
[26] = second compound 1 µM, first compound 1 µM
[27] = second compound 1 µM, first compound 3.16 µM
[28] = second compound 1 µM, first compound 10 µM
[29] = second compound 0.0316 µM, first compound 0.00316 µM
[30] = second compound 0.0316 µM, first compound 0.01 µM
[31] = second compound 0.1 µM, first compound 0.00316 µM
[32] = second compound 0.1 µM, first compound 0.01 µM
[33] = second compound 0.316 µM, first compound 0.00316 µM
[34] = second compound 0.316 µM, first compound 0.01 µM
[35] = second compound 1 µM, first compound 0.00316 µM
[36] = second compound 1 µM, first compound 0.01 µM
[37] = second compound 3.16 µM, first compound 0.0316 µM
[38] = second compound 3.16 µM, first compound 0.1 µM
[39] = second compound 3.16 µM, first compound 0.316 µM
[40] = second compound 3.16 µM, first compound 1 µM
[41] = second compound 10 µM, first compound 0.0316 µM
[42] = second compound 10 µM, first compound 0.1 µM
[43] = second compound 10 µM, first compound 0.316 µM
[44] = second compound 10 µM, first compound 1 µM
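Further: compound exposure lasted seven days before viability was read.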
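Wherever viability, T/C is given: percent of vehicle DMSO treated spheroid viability so 100% = untreated.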

CCCS(=O)(=O)Nc1ccc(F)c(C(=O)c2c[nH]c3ncc(-c4ccc(Cl)cc4)cc23)c1F + COc1c(OCCCN2CCOCC2)ccc2c3n(c(=NC(=O)c4cnc(N)nc4)nc12)CCN3
inactive: viability, T/C [1] 97.3% | viability, T/C [2] 104% | viability, T/C (second compound 0.00316 µM, first compound 0.316 µM) 113% | viability, T/C (second compound 0.00316 µM, first compound 1 µM) 132% | viability, T/C (second compound 0.00316 µM, first compound 3.16 µM) 102% | viability, T/C (second compound 0.00316 µM, first compound 10 µM) 31.2% | viability, T/C [3] 123% | viability, T/C [4] 107% | viability, T/C (second compound 0.01 µM, first compound 0.316 µM) 96.1% | viability, T/C (second compound 0.01 µM, first compound 1 µM) 120% | viability, T/C (second compound 0.01 µM, first compound 3.16 µM) 115% | viability, T/C (second compound 0.01 µM, first compound 10 µM) 28.1% | viability, T/C [5] 95% | viability, T/C [6] 81.4% | viability, T/C [7] 85% | viability, T/C [8] 108% | viability, T/C [9] 87.9% | viability, T/C [10] 29.5% | viability, T/C [11] 61.8% | viability, T/C [12] 65.5% | viability, T/C [13] 65.3% | viability, T/C [14] 89.1% | viability, T/C [15] 70.6% | viability, T/C [16] 26.7% | viability, T/C [17] 39% | viability, T/C [18] 45.2% | viability, T/C [19] 51.6% | viability, T/C [20] 49.3% | viability, T/C [21] 49.5% | viability, T/C [22] 31.9% | viability, T/C [23] 39.2% | viability, T/C [24] 40.9% | viability, T/C [25] 39.3% | viability, T/C [26] 50% | viability, T/C [27] 50.3% | viability, T/C [28] 23.9%
< 31.6 nM: IC50 (second compound 0.316 µM) | IC50 (second compound 1 µM)
7390 nM: IC50 (second compound 0.00316 µM)
6730 nM: IC50 (second compound 0.0316 µM)
5380 nM: IC50 (second compound 0.1 µM)
7410 nM: IC50 (second compound 0.01 µM)

CCN1CCN(Cc2ccc(Nc3ncc(F)c(-c4cc(F)c5nc(C)n(C(C)C)c5c4)n3)nc2)CC1 + CC(Nc1ncnc2nc[nH]c12)c1cc2cccc(Cl)c2c(=O)n1-c1ccccc1
inactive: viability, T/C [29] 90.2% | viability, T/C [30] 85.8% | viability, T/C [5] 71.4% | viability, T/C [6] 58.9% | viability, T/C [7] 46.8% | viability, T/C [8] 37.3% | viability, T/C [31] 95.7% | viability, T/C [32] 92.6% | viability, T/C [11] 73.8% | viability, T/C [12] 62.9% | viability, T/C [13] 41% | viability, T/C [14] 48.2% | viability, T/C [33] 79.4% | viability, T/C [34] 85% | viability, T/C [17] 70.3% | viability, T/C [18] 53.4% | viability, T/C [19] 49.1% | viability, T/C [20] 35.2% | viability, T/C [35] 77% | viability, T/C [36] 86% | viability, T/C [23] 66.7% | viability, T/C [24] 64.4% | viability, T/C [25] 43.1% | viability, T/C [26] 31.5% | viability, T/C (second compound 3.16 µM, first compound 0.00316 µM) 74.3% | viability, T/C (second compound 3.16 µM, first compound 0.01 µM) 68% | viability, T/C [37] 57.5% | viability, T/C [38] 56.8% | viability, T/C [39] 43.6% | viability, T/C [40] 40.1% | viability, T/C (second compound 10 µM, first compound 0.00316 µM) 59.3% | viability, T/C (second compound 10 µM, first compound 0.01 µM) 82.1% | viability, T/C [41] 63.4% | viability, T/C [42] 39% | viability, T/C [43] 38.3% | viability, T/C [44] 34.6%
246 nM: IC50 (second compound 0.1 µM)
185 nM: IC50 (second compound 0.316 µM)
58.9 nM: IC50 (second compound 10 µM)
164 nM: IC50 (second compound 3.16 µM)
215 nM: IC50 (second compound 1 µM)
223 nM: IC50 (second compound 0.0316 µM)

C=CC(=O)N1CCN(c2nc(=O)n(-c3c(C)ccnc3C(C)C)c3nc(-c4c(O)cccc4F)c(F)cc23)C(C)C1 (stereo not drawn) + CC(Nc1ncnc2nc[nH]c12)c1cc2cccc(Cl)c2c(=O)n1-c1ccccc1
> 10000 nM: IC50 (second compound 0.0316 µM) | IC50 (second compound 0.1 µM) | IC50 (second compound 0.316 µM) | IC50 (second compound 1 µM) | IC50 (second compound 3.16 µM) | IC50 (second compound 10 µM)
inactive: viability, T/C [5] 94.2% | viability, T/C [6] 103% | viability, T/C [7] 96.4% | viability, T/C [8] 84.3% | viability, T/C [9] 83.9% | viability, T/C [10] 95.8% | viability, T/C [11] 105% | viability, T/C [12] 123% | viability, T/C [13] 96.8% | viability, T/C [14] 120% | viability, T/C [15] 114% | viability, T/C [16] 108% | viability, T/C [17] 86% | viability, T/C [18] 88.7% | viability, T/C [19] 88.3% | viability, T/C [20] 95.7% | viability, T/C [21] 98.2% | viability, T/C [22] 87.6% | viability, T/C [23] 96.7% | viability, T/C [24] 106% | viability, T/C [25] 64% | viability, T/C [26] 94.8% | viability, T/C [27] 73.4% | viability, T/C [28] 68.9% | viability, T/C [37] 71.3% | viability, T/C [38] 84.3% | viability, T/C [39] 89.5% | viability, T/C [40] 85.1% | viability, T/C (second compound 3.16 µM, first compound 3.16 µM) 95% | viability, T/C (second compound 3.16 µM, first compound 10 µM) 72.2% | viability, T/C [41] 62.1% | viability, T/C [42] 99.5% | viability, T/C [43] 96.8% | viability, T/C [44] 84.5% | viability, T/C (second compound 10 µM, first compound 3.16 µM) 75.5% | viability, T/C (second compound 10 µM, first compound 10 µM) 68.8%

Cn1ncnc1[C@H]1c2n[nH]c(=O)c3cc(F)cc(c23)N[C@@H]1c1ccc(F)cc1 + CC(Nc1ccc2c(c1)OCCn1cc(N3C(=O)OCC3C(F)F)nc1-2)C(N)=O
> 100 nM: IC50 (second compound 0.00316 µM) | IC50 (second compound 0.01 µM) | IC50 (second compound 0.0316 µM) | IC50 (second compound 0.1 µM) | IC50 (second compound 0.316 µM)
10 nM: IC50 (second compound 1 µM)
inactive: viability, T/C (second compound 0.00316 µM, first compound 0.000316 µM) 87.1% | viability, T/C (second compound 0.00316 µM, first compound 0.001 µM) 99.8% | viability, T/C (second compound 0.00316 µM, first compound 0.00316 µM) 102% | viability, T/C (second compound 0.00316 µM, first compound 0.01 µM) 87.2% | viability, T/C [1] 78.6% | viability, T/C [2] 78.2% | viability, T/C (second compound 0.01 µM, first compound 0.000316 µM) 79.6% | viability, T/C (second compound 0.01 µM, first compound 0.001 µM) 83.4% | viability, T/C (second compound 0.01 µM, first compound 0.00316 µM) 112% | viability, T/C (second compound 0.01 µM, first compound 0.01 µM) 87.5% | viability, T/C [3] 73.7% | viability, T/C [4] 95.7% | viability, T/C (second compound 0.0316 µM, first compound 0.000316 µM) 84.6% | viability, T/C (second compound 0.0316 µM, first compound 0.001 µM) 102% | viability, T/C [29] 84.2% | viability, T/C [30] 67.9% | viability, T/C [5] 80.6% | viability, T/C [6] 103% | viability, T/C (second compound 0.1 µM, first compound 0.000316 µM) 88.1% | viability, T/C (second compound 0.1 µM, first compound 0.001 µM) 102% | viability, T/C [31] 95.3% | viability, T/C [32] 79.7% | viability, T/C [11] 93.3% | viability, T/C [12] 78.2% | viability, T/C (second compound 0.316 µM, first compound 0.000316 µM) 70.5% | viability, T/C (second compound 0.316 µM, first compound 0.001 µM) 94.3% | viability, T/C [33] 82.2% | viability, T/C [34] 91.3% | viability, T/C [17] 62.4% | viability, T/C [18] 85.8% | viability, T/C (second compound 1 µM, first compound 0.000316 µM) 67.6% | viability, T/C (second compound 1 µM, first compound 0.001 µM) 72% | viability, T/C [35] 45.1% | viability, T/C [36] 44.5% | viability, T/C [23] 61.3% | viability, T/C [24] 51%
